Results from article PMC5974420, “Isospecific adenine DNA methyltransferases show distinct preferences towards DNA substrates” (Scientific Reports, 2018).

Experiments:
M.LlaCI = target: T1, M.LlaCI (Lactococcus lactis, UniProt O86267); assay: radiometric [3H]methyl transfer to DNA; format: biochemical; conditions: 0.2 µM [methyl-3H]SAM, 0.15 µM ds oligo (AAGCTT site), 10 mM Tris-HCl pH 7.0, 37 °C, 1 h; labelled compound
T1 construct: gene mllaci

M.HindIII = target: T2, M.HindIII (Haemophilus influenzae, UniProt P43871); conditions: 0.2 µM [methyl-3H]SAM, 0.15 µM ds oligo (AAGCTT site), 10 mM Tris-HCl pH 7.0, 37 °C, 1 h; labelled compound
T2 construct: gene hindIIIM

purified protein = substrate: C[S+](CC[C@H](N)C(=O)O)C[C@H]1O[C@@H](n2cnc3c(N)ncnc32)[C@H](O)[C@@H]1O; assay: purified protein; conditions: 10 µM unmethylated ds oligo AAGCTT1/AAGCTT2 (AAGCTT site), 10 mM Tris-HCl pH 7.0, 37 °C, 5 min, 135 nM enzyme, labelled compound

T1 sequence (O86267 1-296): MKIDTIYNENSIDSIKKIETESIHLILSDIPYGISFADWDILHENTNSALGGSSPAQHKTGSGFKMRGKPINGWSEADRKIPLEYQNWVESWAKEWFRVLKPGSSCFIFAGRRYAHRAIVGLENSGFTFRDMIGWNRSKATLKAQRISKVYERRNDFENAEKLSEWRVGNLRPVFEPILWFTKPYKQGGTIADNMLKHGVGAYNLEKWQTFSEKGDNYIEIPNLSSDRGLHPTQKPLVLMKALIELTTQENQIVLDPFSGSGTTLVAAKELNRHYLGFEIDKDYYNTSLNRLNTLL
T2 sequence (P43871 whole entry): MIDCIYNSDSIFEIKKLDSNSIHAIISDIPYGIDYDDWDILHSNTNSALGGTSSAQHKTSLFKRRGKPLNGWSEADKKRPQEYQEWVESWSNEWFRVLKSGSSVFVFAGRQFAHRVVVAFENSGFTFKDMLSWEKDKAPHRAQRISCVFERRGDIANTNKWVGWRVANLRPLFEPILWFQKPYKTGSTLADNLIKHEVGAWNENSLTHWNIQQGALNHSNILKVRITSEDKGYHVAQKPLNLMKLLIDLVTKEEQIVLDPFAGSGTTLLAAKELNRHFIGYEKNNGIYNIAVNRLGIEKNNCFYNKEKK

Molecule | radiometric [3H]methyl transfer to DNA (M.LlaCI) | radiometric [3H]methyl transfer to DNA (M.HindIII) | Km (purified protein)
C[S+](CC[C@H](N)C(=O)O)C[C@H]1O[C@@H](n2cnc3c(N)ncnc32)[C@H](O)[C@@H]1O (stereo partly drawn) [AdoMet] | monitoring transfer of the radioactively labelled methyl groups from [^3H]AdoMet to DNA | monitoring transfer of the radioactively labelled methyl groups from [^3H]AdoMet to DNA | –
M.EcoVIII (Escherichia coli) (protein) MLNKIQLPDEIKKNTVTNGNSISLIKKLPSQYAHLILSDIPYGIGAEDWDVLHNNSNNAYLGSSPAQKNAGAIFKKRGKPINGWSEADKKIPLEYQQWCEEWATEWFRVLKPGASAIIFAGRRFSHRCICAMEDAGFNLRDIIAWMRVKAPHRAQRLSCVYERRGDTLNAEKWNGWRVGNLQPTFEPILWFSKPYKIGGTIADNAIIHGVGAYNQDAFVARNGKPENVITAGFSSNESGLHPTQKPVALMKTLIELTTQKGQLVIDPFSGSGSTLVAAKDLGRDYIGFEINPTYVETSIKRLNK | – | – | 0.27 ± 0.006 µM
